We go through 1 substance from US9381208B2, “Structure and use of 5′ phosphate oligonucleotides” (Rheinische Friedrich-Wilhelms-Universität, priority 2006, dated 2016).

In one experiment the test system is human primary monocytes. Briefly: IFN-α production in human primary monocytes transfected with RNA (ELISA). The note with it: 200 ng RNA transfected, 24 hours, ELISA. The format is cell-based.
Another experiment deals with PDC. As to the kind of experiment: IFN-α production in human PDC (ELISA). The format is cell-based. The note with it: 24 hours. The protocol: Human PBMC were prepared from whole blood donated by young healthy donors by Ficoll-Hypaque density gradient centrifugation (Biochrom, Berlin, Germany). PDC were isolated by MACS using the blood dendritic cell Ag (BCDA)-4 dendritic cell isolation kit from Miltenyi Biotec (Bergisch-Gladbach, Germany). Briefly, PDC were labelled with anti-BDCA-4 Ab coupled to colloidal paramagnetic microbeads and passed through a magnetic separation column twice (LS column, then MS column; Miltenyi Biotec). The purity of isolated PDC (lineage-negative, MHC-II-positive and CD123-positive cells) was above 95%. Before isolation of monocytes, PDC were depleted by MACS (LD column; Miltenyi Biotec) and then monocytes were isolated using the monocyte isolation kit II (Miltenyi Biotec). […] PDC cultures were additionally supplemented with 10 ng/ml IL-3 (R&D Systems). […] Vero (African green monkey kidney) and HEK 293T (human embryonic kidney) cells were maintained in Dulbecco's modified Eagle's medium supplemented with antibiotics and 5% or 10% foetal calf serum, respectively. BSR cells were propagated in Glasgow minimal essential medium supplemented with 10% newborn calf serum, phosphate broth, amino acids and antibiotics.
Human IFN-α was assessed in cell culture supernatants using the IFN-α module set (Bender MedSystems, Graz, Austria). The murine IP-10 ELISA was from Biosource (Solingen, Germany), the murine IFN-[…] ELISA was from PBL Biomedical Laboratories (Piscataway, USA). All ELISA procedures were performed, according to manufacturers' recommendations.
Background: In an ELISA, binding on a coated surface is turned into a signal by an enzyme label.

A further experiment has as its system PBMC. As to the kind of experiment: IFN-α in PBMC transfected with chemically synthesized 5′ triphosphate RNA (ELISA). The format is cell-based, human. The note with it: oligonucleotide alone, 0.2 μg, 24 hours. The protocol:
PBMC were transfected with chemically synthesized single-strand oligonucleotides alone or together with their complementary antisense strand (AS) by using Lipofectamine and incubated in the presence or absence of chloroquine (Chl). CpG2331 was used as a positive and chloroquine-sensitive control for IFN-α induction in PBMC.
The isRNA9.2 (Hornung V et al. (2005) Nat Med 11(3):263-70) generated by in vitro transcription was used a positive control (IVT2-3PRNA). CpG2331 is a TLR9 ligand. PBMC (400,000 cells per well) were transfected with oligonucleotides by using Lipofectamin (0.5 μl, 0.2 μg oligonucleotide). Hybridization of complementary strands was performed by heating 4 μg total RNA in 20 μl of buffer (final 50 mM Tris/HCl pH7.5 100 mM NaCl) up to 70° C. followed by cooling down to 40° C. Chloroquine was used to block TLR-mediated nucleic acid recognition (2.5 μg/ml).

“5′-pppAGCUUAACCUGUCCUUCAA-3′ [9.2s (IVT)]”: the “IFN-α production in monocytes” value in the experiment with human primary monocytes is recorded as “strongly induced IFN-α production”. In addition, in the experiment with PDC, the “IFN-α production in PDC” value is listed as “produced IFN-α”. Besides, in the experiment with PBMC, the “IFN-α induction in PBMC” value is on record as “induced IFN-α”.
